Read-outs that look alike come from different tables or passages of the source.
Key:
[1] = system: Mouse; details: cited from earlier work
[2] = system: human; details: ref Material Safety Data Sheet (MSDS); cited from earlier work
[3] = set-up: method as in PMID 9177723; details: rats, 56 mg of EGCG orally; cited from earlier work
[4] = molecular target: T1, α-glucosidase (Saccharomyces cerevisiae, UniProt P53341); test: α-Glucosidase inhibition assay (PNPG substrate); type: biochemical
T1 construct: purchased Sinopharm Group Chemical Reagent Co. (Shanghai, China)
Method: (§1) All of the other solvents and chemicals used were obtained from Sinopharm Group Chemical Reagent Co., Ltd. (Shanghai, China) and were of analytical grade. Sodium phosphate buffer (PBS) was purchased from Solarbio Co. (Beijing, China) and was prepared to make a concentration of 0.01 M aqueous solution (pH 7.2).
The activity of α-glucosidase was determined in a 96-well plate based on 4-Nitrophenyl […]-D-glucopyranoside (PNPG) as a substrate.

[5] = Storage stability of powder in open air; type: physicochemical; details: room temperature, 60 d
Source text: To study the storage stability of EGCG and PEGCG powder, […] of the two powders were kept in the open air at room temperature, respectively. After 60 days, aliquots of the two powders were sampled and subjected to HPLC analysis, respectively. The HPLC condition was the same as Item 2.5.

[6] = Thermal stability (TG analysis); type: physicochemical; details: 30 to 400 °C, 10 °C/min, nitrogen
Method: The thermal stability behaviors of EGCG and PEGCG were investigated on a TG apparatus (SDT […], TA Instruments, New Castle, DE, USA). About 3.0 mg of each sample was used to perform the analysis by putting the powder on a TG pan. The sample was scanned from 30 to 400 °C with a heating rate of 10 °C/min under a nitrogen atmosphere.

[7] = set-up: method as in PMID 9177723; details: humans, single oral intake of 97 mg; cited from earlier work
[8] = pH stability in alkalescent condition (HPLC); type: physicochemical; details: ethanol/PBS 80:20, pH 7.2, 37 °C, open air, 1.3 mM
Method: (§2) Since the intestine system is alkalescent, it is necessary to assess the stability of EGCG and PEGCG under this condition.
Equivalent molar concentrations (1.3 mM) of EGCG and PEGCG were incubated in Pyrex test tubes (20 × 1.6 cm, i.d.) in the open air at 37 °C, respectively, without any agitation. Aliquots (20 µL) of the incubation solution was periodically (1, 2, 5 h) sampled and subjected to HPLC analysis, respectively. HPLC condition was the same as Item 2.5.

[9] = set-up: method as in PMID 16302765, PMID 12499265; details: sodium phosphate buffer pH 7.4, 3 h; cited from earlier work
[10] = system: porcine pancreatic α-amylase; test: α-Amylase inhibition assay; type: biochemical; details: ratio of IC50 values versus EGCG
Method: as §1

[11] = Solubility in PBS; type: physicochemical
Source text: as §2

[12] = Mouse, acute toxicity, ref Material Safety Data Sheet (MSDS)

T1 sequence (P53341 whole entry): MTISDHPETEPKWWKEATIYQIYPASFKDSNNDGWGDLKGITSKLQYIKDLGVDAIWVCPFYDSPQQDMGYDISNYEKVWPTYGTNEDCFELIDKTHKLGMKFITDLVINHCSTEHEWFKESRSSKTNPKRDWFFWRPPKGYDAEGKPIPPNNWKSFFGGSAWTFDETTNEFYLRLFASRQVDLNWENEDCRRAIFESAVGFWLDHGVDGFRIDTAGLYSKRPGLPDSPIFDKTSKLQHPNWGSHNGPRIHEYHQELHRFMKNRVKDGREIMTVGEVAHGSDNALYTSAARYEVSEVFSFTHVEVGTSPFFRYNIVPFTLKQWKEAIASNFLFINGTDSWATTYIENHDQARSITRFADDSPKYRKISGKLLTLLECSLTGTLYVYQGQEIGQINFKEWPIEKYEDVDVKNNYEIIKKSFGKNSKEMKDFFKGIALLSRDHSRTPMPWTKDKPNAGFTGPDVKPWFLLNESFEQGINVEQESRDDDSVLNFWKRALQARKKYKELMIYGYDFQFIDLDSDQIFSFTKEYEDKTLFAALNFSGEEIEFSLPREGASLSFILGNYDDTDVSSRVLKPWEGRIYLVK
porcine pancreatic α-amylase, sequence (P06278 30-512): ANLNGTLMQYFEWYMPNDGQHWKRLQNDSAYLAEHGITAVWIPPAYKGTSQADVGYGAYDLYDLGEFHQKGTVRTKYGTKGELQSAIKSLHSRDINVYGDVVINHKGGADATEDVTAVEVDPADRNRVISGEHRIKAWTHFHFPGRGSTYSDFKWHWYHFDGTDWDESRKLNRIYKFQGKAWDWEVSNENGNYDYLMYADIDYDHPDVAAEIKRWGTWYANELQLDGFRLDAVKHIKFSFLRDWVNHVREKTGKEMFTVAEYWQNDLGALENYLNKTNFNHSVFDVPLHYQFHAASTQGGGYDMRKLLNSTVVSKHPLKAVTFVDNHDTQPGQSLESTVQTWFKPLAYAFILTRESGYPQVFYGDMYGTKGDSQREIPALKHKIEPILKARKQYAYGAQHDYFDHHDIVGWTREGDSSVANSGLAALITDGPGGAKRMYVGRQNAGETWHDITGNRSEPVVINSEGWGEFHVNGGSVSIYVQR

CN(C)c1ccncc1 [4-dimethylaminopyridine (DMAP), 4-dimethylaminopyridine]
Acute toxicity grade [1, 12]: LD50 250 mg/kg, medium toxicity | Harm to Human Health [2]: Irritating to the eyes; eating poisonous

O=C([O-])[O-].[Na+].[Na+] [Sodium carbonate]
Harm to Human Health [2]: Irritant and corrosive

CC(=O)[O-].[Na+] [Sodium acetate]
Acute toxicity grade ([1]; mouse, in vivo): LD50 25,956 mg/kg, non-toxic | LD50 ([1]; mouse, in vivo): LD50 25,956 mg/kg, non-toxic | Harm to Human Health [2]: None

c1ccncc1 [Pyridine]
Acute toxicity grade ([1]; mouse, in vivo): LD50 1580 mg/kg, mild toxicity | LD50 ([1]; mouse, in vivo): LD50 1580 mg/kg, mild toxicity | Harm to Human Health [2]: Strong irritant; anesthetizes the central nervous system

O=C(O[C@@H]1Cc2c(O)cc(O)cc2O[C@@H]1c1cc(O)c(O)c(O)c1)c1cc(O)c(O)c(O)c1 [EGCG, (−)-Epigallocatechin gallate]
absorbed after oral dose [3]: 0.01% | IC50 [4]: 11.5 ± 0.02 µM | remained after storage [5]: 45% | thermal decomposition temperature [6]: 234.5 °C | absorbed after oral dose [7]: 0.32% | degraded / hydrolyzed after 1 h [8]: 93% | degraded / hydrolyzed after 5 h [8]: utterly degraded | EGCG lost [9]: 90%

CCN(CC)CC [Triethylamine]
Acute toxicity grade [1, 12]: medium toxicity | LD50 ([1]; mouse, in vivo): 460 mg/kg | Harm to Human Health [2]: strong irritant to the respiratory tract; after inhaling can cause pulmonary edema or even death

CCCCCCCCCCCCCCCC(=O)Oc1c(O)cc([C@H]2Oc3cc(O)cc(O)c3C[C@H]2OC(=O)c2cc(O)c(O)c(O)c2)cc1O [PEGCG, 4′-O-palmitoyl EGCG]
α-amylase inhibitory activity relative to EGCG [10]: 4.5 times | IC50 ([4]; 37 °C, PNPG substrate, read-out: IC50 for α-Glucosidase): 0.22 ± 0.03 µM | α-glucosidase inhibitory activity relative to EGCG ([4]; ratio of IC50 values versus EGCG): 52 times | α-glucosidase inhibitory activity relative to acarbose ([4]; ratio of IC50 values versus acarbose): 0.68 times | remained after storage [5]: 78% | thermal decomposition temperature [6]: 311.19 °C | solubility in PBS [11]: insoluble in PBS | degraded / hydrolyzed after 1 h [8]: most of the PEGCG was hydrolyzed to EGCG and its dimers | degraded / hydrolyzed after 5 h [8]: 100%
